In patent US9932589B2, “EML4-ALK fusion gene” (Astellas Pharma Inc., priority 2006, dated 2018):

Tests used:
NPM-ALK = target: T1, NPM-ALK (Homo sapiens, UniProt Q9UM73); conditions: Non-Patent Document 22; cited from earlier work
T1 construct: the other entry of the earlier key: NPM1 (P06748, Nucleophosmin)

U-87MG cells = test: anchorage independent growth on spheroid plate, U-87MG cells expressing full length ALK; format: cell-based, human; conditions: 3 days; for inhibition at 0.01 µM: final concentration 10 nM
Method: (§1) The v1 expressing 3T3 cells (Example 6(1)) and one of the human glioma cells expressing the full length ALK polypeptide and not expressing EML4-ALK fusion polynucleotide endogenously, U-87 MG cells, were seeded to a 96 well spheroid plate (Sumilon Celltight Spheroid 96U, Sumitomo Bakelite Inc.) at 3000 cells per well in a medium containing 10% fetal bovine serum (DMEM for v1 expressing 3T3 cells and RPMI 1640 for U-87MG). […] At the same time, cells were counted before the addition of drugs (Day 0). Then, cells were cultured under 5% CO2, at 37° C. for 3 days, mixed with a reagent for measuring cell number (CellTiter-Glo™ Luminescent Cell Viability Assay; Promega Inc.) stirred for 20 minutes, and the measurements (day 3) were carried out using a luminometer (ML3000 microtiter plate luminometer; Dynatech Laboratories Inc.).

[1] = target: T2, EML4-ALK fusion polypeptide v1 (Homo sapiens, UniProt Q9UM73, D1529E/I1461V/K1491R); test: intracellular autophosphorylation of EML4-ALK fusion polypeptide v1 in v1 expressing 3T3 cells; format: cell-based; conditions: 4 hours
T2 construct: expressed in transfected cells; host or cells: mouse 3T3 fibroblasts transfected with EML4-ALKv1/pMXS (v1 expressing 3T3 cells); for A10, grown as a subcutaneous tumour in nude mice

[2] = system: EML4-ALK fusion polypeptide v1; test: intracellular autophosphorylation of EML4-ALK fusion polypeptide v1 in v1 expressing BA/F3 cells; format: cell-based, human; conditions: for Inhibition on autophosphorylation (BA/F3cells): 6 hours
Method: Compound A (1 μM, 5 μM and 10 μM) was added to the culture medium of v1 expressing BA/F3 cells (Example 5(1)) or not added, and cultured for 3 hours. In addition, BA/F3 cells expressing FLAG-EML4-ALKv1(K589M) were produced using pMX-iresCD8 vector in which EML4-ALK (K589M) was integrated so that FLAG can be added, and cultured. After culturing, cells were counted and the level of phosphorylation of tyrosine of EML4-ALK fusion polypeptide v1 was measured by immunoblotting using anti-phosphorylated ALK antibody. Further, for the same transfer membrane, immunoblotting analysis by anti-FLAG tag antibody (Eastman Kodak Inc.) was carried out, and total protein quantity of the FLAG attached EML4-ALK fusion polypeptide v1 was measured.
However, the culturing time after the addition of the compounds was 6 hours, and the total protein amount of the EML4-ALK fusion polypeptide v1 was measured using anti-ALK antibody. In addition, the amount of phosphorylation was calculated by quantitating as in Example 7(2). Also, for compound A, the amount of phosphorylation was calculated by quantitating in experiment under this condition. The rate of inhibition was calculated from the amount of phosphorylation when the compound was added, using the value when the compound was not added (the solvent of the compound, DMSO was added) as a control (0% inhibition).

[3] = system: CD8 expressing BA/F3 cells; test: growth of CD8 expressing BA/F3 cells in the presence of IL-3; format: cell-based, mouse; conditions: 1 μM, 5 μM or 10 μM
[4] = system: EML4-ALK fusion polypeptide v1; test: in vitro kinase activity (autophosphorylation) of purified EML4-ALK fusion polypeptide v1, immunoblotting with anti-phosphorylated ALK antibody; format: biochemical, human
Method: (§2) The v1 expressing BA/F3 cells (Example 5(1)) were cultured in RPM1640 medium containing 10% of fetal bovine scrum to obtain 2.7×10^9 cells. After washing 3 times with PBS, cells were lysed in a lysis solution (50 mM Tris HCl (pH7.4), 150 mM NaCl, 1% Triton×100, 5 mM EDTA, 5 mM EGTA, 1 mM NaVO4, 1 mM DTT and protease inhibitor cocktail complete). The EML4-ALK fusion polypeptide v1 present in the supernatant obtained after a centrifugation was purified using ANTI-FLAG M2 Affinity Gel (SIGMA-ALDRICH Inc) according to the method described in the product information document. For washing and elution, the washing solution (50 mM Tris.HCl (pH7.4), 250 mM NaCl, 0.05% Brij35, 1 mM EDTA, 1 mM EGTA, 1 mM NaVO4, 1 mM DTT, complete) and the elution solution (50 mM Tris.HCl (pH7.4), 150 mM NaCl, 0.05% Brij35, 1 mM DTT, 0.5 mg/mL FLAG peptide) were used, respectively. Immunoblotting using anti-ALK antibody and anti FLAG M2 antibody (SIGMA-ALDRICH Inc.) and silver staining were carried out for the eluate to detect the EML4-ALK fusion polypeptide v1.
The EML4-ALK fusion polypeptide v1 purified as described above was diluted in a reaction solution (15 mM Tris HCl (pH7.4), 0.25 mM MgCl2, 0.01% Tween-20, 2 mM DTT), and then ATP was not added or ATP 20 μM was added. The respective mixtures were reacted at room temperature for 1 hour. After the reaction, the auto phosphorylated EML4-ALK fusion polypeptide v1 and the EML4-ALK fusion polypeptide v1 were detected by immunoblotting using anti-phosphorylated ALK antibody, which recognizes specifically the product phosphorylated at the 1604th tyrosine residue of ALK, and anti-ALK antibody, and quantitated by an image analysis system (VersaDoc Imaging System; Bio-Rad Inc.). The amount of phosphorylation was calibrated by dividing the count of the autophosphorylated EML4-ALK fusion polypeptide v1 by the count of the EML4-ALK fusion polypeptide v1. As the result, the autophosphorylated EML4-ALK fusion polypeptide v1 band was detected at the location of about 130 kDa under the condition of ATP addition, and the amount of phosphorylation was increased by about 205 folds compared to no-ATP addition.
(§3) The inhibitory effect of compound A-D against the in vitro kinase activity of the EML4-ALK fusion polypeptide v1 was investigated using anti-phosphorylated ALK antibody and the kinase activity detection kit. Respective compounds were added to the reaction solution containing the EML4-ALK fusion polypeptide v1 at a final concentration of 10 μM or 10 nM, and then the reaction was carried out with or without the addition of ATP. The rest of the operations were carried out according to the method (2) described above. […] The inhibition (%) of the kinase activity of the EML4-ALK fusion polypeptide v1 by a compound was calculated by the following formula. […]

[5] = system: v1 expressing BA/F3 cells; test: growth of v1 expressing BA/F3 cells in the absence of IL-3; format: cell-based, mouse; conditions: 1 μM, 5 μM or 10 μM
Method: Next, compound A, which is a substance that inhibits the EML4-ALK fusion polypeptide v1, was added to BA/F3 cells which obtained the IL-3 independent growth potential by expressing the EML4-ALK fusion polypeptide v1, and its effect on cell growth was investigated. […] That is, it was confirmed that cells, growing dependently on the EML4-ALK fusion polynucleotide (oncogene), were killed by an inhibitor of the EML4-ALK fusion polypeptide v1.

v1 expressing 3T3 cells = test: anchorage independent growth on spheroid plate, v1 expressing 3T3 cells; format: cell-based, mouse
Method: as §1

[6] = system: EML4-ALK fusion polypeptide v1; test: in vitro phosphorylation of peptide substrate (TK substrate 1) by EML4-ALK fusion polypeptide v1, HTRF KinEASE-TK kit; format: biochemical, human
Method: as §2
In addition, the phosphorylation activity toward a peptide substrate was investigated using a kinase activity detection kit (HTRF KinEASE-TK; Cisbio Inc.). Using TK substrate 1, which was included in the kit, as the substrate, and after adding no ATP or 100 μM ATP, the mixtures were reacted at room temperature for 1 hour, and the count of HTRF was detected as recommended by the Kits manufacturer. As the result it became clear that the count of HTRF (that is, phosphorylation of the peptide substrate) was increased by about 12 times by the addition of ATP compare to no addition of ATP. As shown above, the in vitro kinase activity of the EML4-ALK fusion polypeptide v1 can be detected using anti-phosphorylated ALK antibody and the kinase activity detection kit.
as §3

[7] = system: v1 expressing 3T3 cells (tumor); test: anti-tumor test against v1 expressing 3T3 cells inoculated subcutaneously in nude mice; format: in vivo, mouse; conditions: once a day for 10 days, start 6 days after inoculation, otherwise similar procedure
Method: Administrations were performed once a day for 14 days, and body weight and tumor size were measured every other day. Tumor volume was calculated using the following formula. […] The administration of the compound D was started after 6 days of the inoculation and carried out once a day for 10 days, and then the tumor size was measured.

[8] = target: T3, EML4-ALK fusion polypeptide v2 (Homo sapiens, UniProt Q9UM73, D1529E/I1461V/K1491R); test: intracellular autophosphorylation of EML4-ALK fusion polypeptide v2 in 293EBNA cells; format: cell-based; conditions: final concentration 10 nM, 4 hours
T3 construct: expressed in transfected cells; host or cells: 293EBNA cells (Invitrogen) transfected with FLAG-EML4-ALKv2/pcDNA3

[9] = Mus musculus, NIH3T3, read-out: inhibition rate of anchorage independent growth, v1 expressing 3T3 cells
[10] = Homo sapiens, U-87 MG, 72 h, read-out: inhibition rate of anchorage independent growth, U-87MG cell

T2 sequence (Q9UM73 with tags, fused parts or gaps I1461V/K1491R/D1529E): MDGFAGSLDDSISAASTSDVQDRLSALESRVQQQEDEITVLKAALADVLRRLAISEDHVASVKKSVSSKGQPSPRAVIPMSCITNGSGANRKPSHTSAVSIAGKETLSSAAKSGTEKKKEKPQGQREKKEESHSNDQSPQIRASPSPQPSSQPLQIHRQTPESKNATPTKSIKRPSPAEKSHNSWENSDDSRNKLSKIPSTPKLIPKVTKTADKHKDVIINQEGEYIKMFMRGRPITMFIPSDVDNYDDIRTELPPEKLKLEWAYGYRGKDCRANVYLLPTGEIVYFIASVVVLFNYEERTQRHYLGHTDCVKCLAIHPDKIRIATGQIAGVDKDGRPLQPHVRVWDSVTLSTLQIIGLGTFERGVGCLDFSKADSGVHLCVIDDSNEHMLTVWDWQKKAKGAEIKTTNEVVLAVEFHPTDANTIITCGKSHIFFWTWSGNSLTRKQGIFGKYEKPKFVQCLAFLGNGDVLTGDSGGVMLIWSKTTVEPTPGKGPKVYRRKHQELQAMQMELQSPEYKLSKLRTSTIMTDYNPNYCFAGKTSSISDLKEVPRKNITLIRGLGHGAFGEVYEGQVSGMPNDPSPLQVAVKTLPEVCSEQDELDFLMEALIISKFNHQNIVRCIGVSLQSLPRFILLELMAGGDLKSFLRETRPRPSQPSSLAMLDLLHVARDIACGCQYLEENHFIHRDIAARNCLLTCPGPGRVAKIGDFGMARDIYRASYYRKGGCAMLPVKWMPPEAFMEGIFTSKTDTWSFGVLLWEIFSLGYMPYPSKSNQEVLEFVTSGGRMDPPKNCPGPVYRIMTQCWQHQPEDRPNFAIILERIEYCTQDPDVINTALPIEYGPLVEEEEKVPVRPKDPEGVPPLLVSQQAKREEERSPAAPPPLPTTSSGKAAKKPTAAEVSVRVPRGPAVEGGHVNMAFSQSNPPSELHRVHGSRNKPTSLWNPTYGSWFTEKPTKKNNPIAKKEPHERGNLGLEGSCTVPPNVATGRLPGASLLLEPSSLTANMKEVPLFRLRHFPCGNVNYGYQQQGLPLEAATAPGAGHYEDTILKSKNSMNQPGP
T1 sequence (Q9UM73 with tags, fused parts or gaps): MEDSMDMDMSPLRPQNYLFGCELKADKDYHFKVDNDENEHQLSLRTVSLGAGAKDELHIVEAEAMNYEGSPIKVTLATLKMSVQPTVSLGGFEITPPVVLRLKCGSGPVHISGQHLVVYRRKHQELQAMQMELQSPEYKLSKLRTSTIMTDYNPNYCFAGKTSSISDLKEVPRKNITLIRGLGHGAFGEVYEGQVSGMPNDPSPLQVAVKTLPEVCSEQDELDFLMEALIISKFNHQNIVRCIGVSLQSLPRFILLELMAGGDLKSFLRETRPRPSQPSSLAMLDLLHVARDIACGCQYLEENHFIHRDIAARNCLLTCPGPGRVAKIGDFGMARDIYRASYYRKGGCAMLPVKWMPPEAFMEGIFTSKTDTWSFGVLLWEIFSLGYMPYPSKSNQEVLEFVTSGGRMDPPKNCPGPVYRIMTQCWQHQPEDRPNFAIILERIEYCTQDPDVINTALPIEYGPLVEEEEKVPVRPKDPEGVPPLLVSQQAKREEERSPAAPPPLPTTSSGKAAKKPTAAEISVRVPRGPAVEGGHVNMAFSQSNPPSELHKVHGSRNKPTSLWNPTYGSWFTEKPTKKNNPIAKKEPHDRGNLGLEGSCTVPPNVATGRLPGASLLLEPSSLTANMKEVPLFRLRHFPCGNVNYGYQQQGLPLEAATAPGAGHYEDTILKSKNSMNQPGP
T3 sequence (Q9UM73 with tags, fused parts or gaps I1461V/K1491R/D1529E): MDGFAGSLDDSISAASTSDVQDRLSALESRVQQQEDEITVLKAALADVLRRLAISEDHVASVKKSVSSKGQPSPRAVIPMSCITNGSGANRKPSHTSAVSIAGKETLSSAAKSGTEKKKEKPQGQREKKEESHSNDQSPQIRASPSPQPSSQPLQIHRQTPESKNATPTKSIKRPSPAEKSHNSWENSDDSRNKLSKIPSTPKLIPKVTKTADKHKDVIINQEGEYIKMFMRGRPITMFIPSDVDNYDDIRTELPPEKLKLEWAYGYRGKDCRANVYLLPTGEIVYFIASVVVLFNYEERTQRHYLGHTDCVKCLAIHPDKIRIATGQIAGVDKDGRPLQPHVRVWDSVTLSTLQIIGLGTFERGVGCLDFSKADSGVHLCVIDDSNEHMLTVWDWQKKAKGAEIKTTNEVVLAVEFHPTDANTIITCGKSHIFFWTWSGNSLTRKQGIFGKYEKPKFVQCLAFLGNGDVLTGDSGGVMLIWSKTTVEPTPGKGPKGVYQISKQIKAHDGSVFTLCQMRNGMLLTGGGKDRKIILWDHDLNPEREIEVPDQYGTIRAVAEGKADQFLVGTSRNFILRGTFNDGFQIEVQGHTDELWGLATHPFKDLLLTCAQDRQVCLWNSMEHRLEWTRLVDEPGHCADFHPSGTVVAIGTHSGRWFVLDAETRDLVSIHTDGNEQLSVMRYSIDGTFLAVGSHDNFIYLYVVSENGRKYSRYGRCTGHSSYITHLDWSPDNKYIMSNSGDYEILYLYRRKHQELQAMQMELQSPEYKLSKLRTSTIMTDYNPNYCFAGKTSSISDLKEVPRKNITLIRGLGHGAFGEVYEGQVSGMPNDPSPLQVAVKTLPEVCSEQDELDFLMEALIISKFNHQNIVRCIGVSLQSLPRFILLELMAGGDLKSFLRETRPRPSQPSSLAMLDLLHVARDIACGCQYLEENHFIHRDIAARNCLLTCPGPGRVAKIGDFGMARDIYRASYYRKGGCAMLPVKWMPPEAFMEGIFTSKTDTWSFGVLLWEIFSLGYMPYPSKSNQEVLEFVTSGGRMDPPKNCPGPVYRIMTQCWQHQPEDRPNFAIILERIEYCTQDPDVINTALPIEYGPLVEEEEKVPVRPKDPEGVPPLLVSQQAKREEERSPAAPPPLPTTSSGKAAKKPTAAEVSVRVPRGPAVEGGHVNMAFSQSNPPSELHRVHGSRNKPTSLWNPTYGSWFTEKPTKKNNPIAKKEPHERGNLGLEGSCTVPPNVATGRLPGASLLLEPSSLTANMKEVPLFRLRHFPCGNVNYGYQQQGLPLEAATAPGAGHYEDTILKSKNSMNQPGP

Row | SMILES | activity of NPM-ALK (NPM-ALK) | Inhibition on autophosphorylation (BA/F3cells) ([2]; final concentration 10 μM) | Inhibition on autophosphorylation ([4]; final concentration 10 μM) | Inhibition on peptide substrate ([6]; final concentration 10 μM) | inhibition at 0.01 µM (U-87MG cells; [10]) | Inhibition on autophosphorylation (BA/F3cells) ([2]; final concentration 10 nM) | Inhibition on autophosphorylation ([4]; final concentration 10 nM) | inhibition at 0.01 µM (v1 expressing 3T3 cells; [9]) | Inhibition on peptide substrate ([6]; final concentration 10 nM) | further results
1 | COc1cc2ncnc(Nc3ccc(O)cc3)c2cc1OC [WHI-P131, 4-(4′-Hydroxyphenyl)amino-6,7-dimethoxyquinazo line] | inhibit the activity of NPM-ALK | – | – | – | – | – | – | – | – | –
2 | COc1cc2ncnc(Nc3ccc(O)c(Br)c3)c2cc1OC [compound A, 4-[(3′-Bromo-4′-hydroxyphenyl)amino]-6,7-dimethoxyquinazoline] | inhibit the activity of NPM-ALK | 74% | 104% | 99% | – | – | – | – | – | inhibition rate of anchorage independent growth, U-87MG cell (U-87MG cells; final concentration 10 μM): 15%; Inhibition on autophosphorylation (3T3cells) ([1]; final concentration 10 μM): 82%; intracellular autophosphorylation of the EML4-ALK fusion polypeptide v1 (FIG. 4) ([2]; 1 μM, 5 μM and 10 μM, 3 hours): inhibits the intracellular autophosphorylation of the EML4-ALK fusion polypeptide v1 in a concentration-dependent manner; cell growth of CD8 expressing BA/F3 cells (FIG. 6(a)) [3]: a slight growth inhibition was observed; cell growth of v1 expressing BA/F3 cells (FIG. 6(b)) [5]: the cell growth was markedly inhibited by concentration-dependence of compound A and cell death was induced; inhibition rate of anchorage independent growth, v1 expressing 3T3 cells (v1 expressing 3T3 cells; final concentration 10 μM, 3 days, Day 0 = 100%, Day 3 = 0% inhibition): 106%
3 | O=C(COc1ccc(OC(F)(F)F)cc1)NCc1nc(C(=O)NCCc2cccc(Cl)c2)cs1 [compound B, N-[2-(3-chlorophenyl)ethyl]-2-[({[4-(trifluoromethoxy)phenoxy]acetyl}amino)methyl]-1,3-thiazole-4-carboxamide] | – | 77% | 68% | 56% | – | – | – | – | – | inhibition at 10 µM (U-87MG cells; Homo sapiens, U-87 MG, 72 h, final concentration 10 μM, read-out: inhibition rate of anchorage independent growth, U-87MG cell): 34%; inhibition at 10 µM ([1]; NIH3T3, final concentration 10 μM, read-out: Inhibition on autophosphorylation (3T3cells)): 49%; inhibition at 10 µM (v1 expressing 3T3 cells; [9]): 91%
4 | COc1cc(N2CCC(N3CCN(C)CC3)CC2)ccc1Nc1ncc(Cl)c(Nc2ccccc2S(=O)(=O)C(C)C)n1 [compound C, 5-chloro-N^4-[2-(isopropylsulfonyl)phenyl]-N^2-{2-methoxy-4-[4-(4-methylpiperazin-1-yl)piperidin-1-yl]phenyl}pyrimidine-2,4-diamine] | – | – | – | – | -2% | 84% | 102% | 131% | 99% | –
5 | CNS(=O)(=O)c1ccccc1Nc1nc(Nc2ccc(N3CCN(C)CC3)cc2OC)ncc1Br [compound D, 2-[(5-bromo-2-{[2-methoxy-4-(4-methylpiperazin-1-yl)phenyl]amino}pyrimidin-4-yl)amino]-N-methylbenzenesulfonamide] | – | – | – | – | -2% | 90% | 96% | 135% | 99% | inhibition at 0.01 µM ([1]; NIH3T3, final concentration 10 nM, read-out: Inhibition on autophosphorylation (3T3cells)): 86%; inhibition of growth of v1 expressing 3T3 cells (tumor), tumor volume [7]: 101%; inhibition at 0.01 µM [8]: 95%
